Columns and labels:
Mus musculus [1] = organism: Mus musculus; experiment: The extent of apoptosis was determined by evaluating the subdiploid population of propidium iodide stained cells using flow cytometry after 9 hr using thymocytes from mice; type: functional, Thymocyte
P815 = experiment: Compound was evaluated for Thymidine incorporation in P815 cell lines; type: functional; conditions: Mus musculus, read-out: ED50 (the source's name)
Mus musculus [2] = organism: Mus musculus; experiment: Compound was evaluated for macrophage adherence in thioglycolate induced mouse macrophages; type: functional; conditions: read-out: ED50 (the source's name)
[3] = molecular target: Creatine kinase M-type (Oryctolagus cuniculus) (UniProt P00563); experiment: Compound was evaluated for interaction with the creatine kinase in rabbit muscle after 6 hr; design: reference not given here
Chain of Creatine kinase M-type (Oryctolagus cuniculus) (P00563 whole entry, looked up): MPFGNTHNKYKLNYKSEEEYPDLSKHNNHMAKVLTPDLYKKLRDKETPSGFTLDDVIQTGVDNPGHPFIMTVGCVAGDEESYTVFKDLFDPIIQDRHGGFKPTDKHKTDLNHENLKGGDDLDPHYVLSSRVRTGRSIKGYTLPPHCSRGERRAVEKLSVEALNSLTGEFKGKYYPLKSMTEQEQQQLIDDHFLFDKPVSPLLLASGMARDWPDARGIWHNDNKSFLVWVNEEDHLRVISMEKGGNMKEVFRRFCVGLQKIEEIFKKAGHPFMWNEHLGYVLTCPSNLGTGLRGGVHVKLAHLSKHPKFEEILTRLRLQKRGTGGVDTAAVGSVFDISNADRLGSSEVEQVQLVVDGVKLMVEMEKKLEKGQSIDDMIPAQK

SMILES | Activity (Mus musculus [1]) [%] | EC50 (P815) [µM] | EC50 (Mus musculus [2]) [µM] | Activity [3] [%]
CCN1C(=O)[C@H]2SS[C@@H]1C(=O)N2CC | 53 | 50 | 5 | 34
CCN1C(=O)[C@@H]2SS[C@H]1C(=O)N2CC | 57 | 55 | 8 | 34
CCN1C(=O)C2SSC1C(=O)N2CC (racemic) | 54 | 35 | 2.5 | 35
CN1C(=O)[C@]23CC4=CC=C[C@H](O)[C@H]4N2C(=O)[C@@]1(CO)SS3 [GLIOTOXIN] | 59 | 2 | 0.35 | 32

From ChEMBL document CHEMBL1130374, “Resolution and biological activities of optical isomers of 1,4-diethyl-3,6-epidithiopiperazine-2,5-dione” (1997)
